Source: patent US12077503B2, “Substituted cyclic amides and their use as herbicides” (FMC CORPORATION, priority 2015, dated 2024)

Columns and labels:
Assay type in all cases: in vivo
[1] = tested on: barnyardgrass (Echinochloa crus-galli); test: Test A preemergence; conditions: Echinochloa crus-galli, pre-emergence, 240 h, 0 to 100 scale where 0 is no effect and 100 is complete control, read-out: Barnyardgrass plant response rating; for pest or weed control at 31 g/ha: 31 g ai/ha, Preemergence; for pest or weed control at 125 g/ha: 125 g ai/ha, preemergence, visual injury rating, approximately 10 d
Summary of the method: (§1)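 Visual injury, scored on a 0–100 scale relative to untreated controls, was recorded about 10 d after application. Treatments were a preemergence soil spray over planted seeds or a postemergence spray on plants at the one- to two-leaf stage, 2 to 10 cm tall, all in loam soil–sand blend in the greenhouse.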

Kochia (Kochia scoparia) [2] = test: Test A preemergence; conditions: Bassia scoparia, pre-emergence, 240 h, 0 to 100 scale where 0 is no effect and 100 is complete control, read-out: Kochia plant response rating; for pest or weed control at 31 g/ha: 31 g ai/ha, Preemergence; for pest or weed control at 125 g/ha: 125 g ai/ha, preemergence, visual injury rating, approximately 10 d
Summary of the method: as §1

[3] = tested on: giant foxtail (Setaria faberii); test: Test A preemergence; conditions: Setaria faberi, pre-emergence, 240 h, 0 to 100 scale where 0 is no effect and 100 is complete control, read-out: Foxtail, Giant plant response rating; for pest or weed control at 31 g/ha: 31 g ai/ha, Preemergence; for pest or weed control at 125 g/ha: 125 g ai/ha, preemergence, visual injury rating, approximately 10 d
Summary of the method: as §1

[4] = tested on: ryegrass, Italian (Italian ryegrass, Lolium multiflorum); test: Test A preemergence; conditions: Lolium multiflorum, pre-emergence, 240 h, 0 to 100 scale where 0 is no effect and 100 is complete control, read-out: Ryegrass, Italian plant response rating; for pest or weed control at 31 g/ha: 31 g ai/ha, Preemergence; for pest or weed control at 125 g/ha: 125 g ai/ha, preemergence, visual injury rating, approximately 10 d
Summary of the method: as §1

[5] = tested on: pigweed (Amaranthus retroflexus); test: Test A preemergence; conditions: Amaranthus retroflexus, pre-emergence, 240 h, 0 to 100 scale where 0 is no effect and 100 is complete control, read-out: Pigweed plant response rating; for pest or weed control at 31 g/ha: 31 g ai/ha, Preemergence; for pest or weed control at 125 g/ha: 125 g ai/ha, preemergence, visual injury rating, approximately 10 d
[6] = tested on: ragweed (common ragweed, Ambrosia elatior); test: Test A preemergence; conditions: Ambrosia artemisiifolia, pre-emergence, 240 h, 0 to 100 scale where 0 is no effect and 100 is complete control, read-out: Ragweed plant response rating; for pest or weed control at 31 g/ha: 31 g ai/ha, Preemergence; for pest or weed control at 125 g/ha: 125 g ai/ha, preemergence, visual injury rating, approximately 10 d
Summary of the method: as §1

[7] = tested on: blackgrass (Alopecurus myosuroides); test: Test A postemergence; conditions: Alopecurus myosuroides, post-emergence, 240 h, read-out: Blackgrass plant response rating (0 to 100 scale); for pest or weed control at 125 g/ha: 125 g ai/ha, postemergence, visual injury vs untreated controls after approx. 10 d, 0 = no effect, 100 = complete control; for pest or weed control at 31 g/ha: Postemergence, 31 g ai/ha, 0 is no effect, 100 is complete control
Summary of the method: as §1

[8] = tested on: Galium (catchweed bedstraw, Galium aparine); test: Test A postemergence; conditions: Galium, post-emergence, 240 h, read-out: Galium plant response rating (0 to 100 scale); for pest or weed control at 125 g/ha: 125 g ai/ha, postemergence, visual injury vs untreated controls after approx. 10 d, 0 = no effect, 100 = complete control; for pest or weed control at 31 g/ha: Postemergence, 31 g ai/ha, 0 is no effect, 100 is complete control
Summary of the method: as §1

[9] = tested on: barnyardgrass (Echinochloa crus-galli); test: Test A postemergence; conditions: Echinochloa crus-galli, post-emergence, 240 h, read-out: Barnyardgrass plant response rating (0 to 100 scale); for pest or weed control at 125 g/ha: 125 g ai/ha, postemergence, visual injury vs untreated controls after approx. 10 d, 0 = no effect, 100 = complete control; for pest or weed control at 31 g/ha: Postemergence, 31 g ai/ha, 0 is no effect, 100 is complete control
Summary of the method: as §1

Kochia (Kochia scoparia) [10] = test: Test A postemergence; conditions: Bassia scoparia, post-emergence, 240 h, read-out: Kochia plant response rating (0 to 100 scale); for pest or weed control at 125 g/ha: 125 g ai/ha, postemergence, visual injury vs untreated controls after approx. 10 d, 0 = no effect, 100 = complete control; for pest or weed control at 31 g/ha: Postemergence, 31 g ai/ha, 0 is no effect, 100 is complete control
Summary of the method: as §1

corn (Zea mays) = test: Test A postemergence; conditions: Zea mays, post-emergence, 240 h, read-out: Corn plant response rating (0 to 100 scale); for plant injury at 125 g/ha: 125 g ai/ha, postemergence, visual injury vs untreated controls after approx. 10 d, 0 = no effect, 100 = complete control; for plant injury at 31 g/ha: Postemergence, 31 g ai/ha, 0 is no effect, 100 is complete control
Summary of the method: as §1

[11] = tested on: wheat (Triticum aestivum); test: Test A postemergence; conditions: Triticum aestivum, post-emergence, 240 h, read-out: Wheat plant response rating (0 to 100 scale); for plant injury at 125 g/ha: 125 g ai/ha, postemergence, visual injury vs untreated controls after approx. 10 d, 0 = no effect, 100 = complete control; for plant injury at 31 g/ha: Postemergence, 31 g ai/ha, 0 is no effect, 100 is complete control
Summary of the method: as §1

[12] = tested on: giant foxtail (Setaria faberii); test: Test A postemergence; conditions: Setaria faberi, post-emergence, 240 h, read-out: Foxtail, Giant plant response rating (0 to 100 scale); for pest or weed control at 125 g/ha: 125 g ai/ha, postemergence, visual injury vs untreated controls after approx. 10 d, 0 = no effect, 100 = complete control; for pest or weed control at 31 g/ha: Postemergence, 31 g ai/ha, 0 is no effect, 100 is complete control
Summary of the method: as §1

[13] = tested on: ryegrass, Italian (Italian ryegrass, Lolium multiflorum); test: Test A postemergence; conditions: Lolium multiflorum, post-emergence, 240 h, read-out: Ryegrass, Italian plant response rating (0 to 100 scale); for pest or weed control at 125 g/ha: 125 g ai/ha, postemergence, visual injury vs untreated controls after approx. 10 d, 0 = no effect, 100 = complete control; for pest or weed control at 31 g/ha: Postemergence, 31 g ai/ha, 0 is no effect, 100 is complete control
Summary of the method: as §1

[14] = tested on: pigweed (Amaranthus retroflexus); test: Test A postemergence; conditions: Amaranthus retroflexus, post-emergence, 240 h, read-out: Pigweed plant response rating (0 to 100 scale); for pest or weed control at 125 g/ha: 125 g ai/ha, postemergence, visual injury vs untreated controls after approx. 10 d, 0 = no effect, 100 = complete control; for pest or weed control at 31 g/ha: Postemergence, 31 g ai/ha, 0 is no effect, 100 is complete control
Summary of the method: as §1

[15] = tested on: ragweed (common ragweed, Ambrosia elatior); test: Test A postemergence; conditions: Ambrosia artemisiifolia, post-emergence, 240 h, read-out: Ragweed plant response rating (0 to 100 scale); for pest or weed control at 125 g/ha: 125 g ai/ha, postemergence, visual injury vs untreated controls after approx. 10 d, 0 = no effect, 100 = complete control; for pest or weed control at 31 g/ha: Postemergence, 31 g ai/ha, 0 is no effect, 100 is complete control
Summary of the method: as §1

[16] = tested on: barnyardgrass (Echinochloa crus-galli); test: Test B flooded paddy test; conditions: Echinochloa crus-galli, 250 g ai/ha, Flood; 0 to 100 scale where 0 is no effect and 100 is complete control; read-out: Barnyardgrass plant response rating
Summary of the method: (§2)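 Rating scale 0–100 (visual, vs untreated controls) after a 13–15 d greenhouse period; application to the flood layer, 3 cm above soil and maintained; plants at 2-leaf stage when treated.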

rice (Oryra sativa) = test: Test B flooded paddy test; conditions: Oryza sativa, 250 g ai/ha, Flood; 0 to 100 scale where 0 is no effect and 100 is complete control; read-out: Rice plant response rating
Summary of the method: as §2

[17] = tested on: sedge, umbrella (small-flower umbrella sedge, Cyperus difformis); test: Test B flooded paddy test; conditions: Cyperus difformis, 250 g ai/ha, Flood; 0 to 100 scale where 0 is no effect and 100 is complete control; read-out: Sedge, Umbrella plant response rating
Summary of the method: as §2

[18] = tested on: ducksalad (Heteranthera limosa); test: Test B flooded paddy test; conditions: Heteranthera limosa, 250 g ai/ha, Flood; 0 to 100 scale where 0 is no effect and 100 is complete control; read-out: Ducksalad plant response rating
Summary of the method: as §2

Row | SMILES | pest or weed control at 31 g/ha [1] [%] | pest or weed control at 125 g/ha [1] [%] | pest or weed control at 31 g/ha (Kochia (Kochia scoparia) [2]) [%] | pest or weed control at 125 g/ha (Kochia (Kochia scoparia) [2]) [%] | pest or weed control at 31 g/ha [3] [%] | pest or weed control at 125 g/ha [3] [%] | pest or weed control at 31 g/ha [4] [%] | pest or weed control at 125 g/ha [4] [%] | pest or weed control at 31 g/ha [5] [%] | pest or weed control at 125 g/ha [5] [%] | pest or weed control at 31 g/ha [6] [%] | pest or weed control at 125 g/ha [6] [%] | pest or weed control at 125 g/ha [7] [%] | pest or weed control at 31 g/ha [7] [%] | pest or weed control at 125 g/ha [8] [%] | pest or weed control at 31 g/ha [8] [%] | pest or weed control at 125 g/ha [9] [%] | pest or weed control at 31 g/ha [9] [%] | pest or weed control at 125 g/ha (Kochia (Kochia scoparia) [10]) [%] | pest or weed control at 31 g/ha (Kochia (Kochia scoparia) [10]) [%] | also measured
1 | Cc1ccc([C@H]2CN(C)C(=O)[C@@H]2C(=O)Nc2cccc(C#N)c2F)cc1 [Compound 1188] | 90 | 100 | 60 | 80 | 90 | 100 | 0 | 60 | 40 | 80 | 30 | 70 | 70 | 30 | 60 | 50 | 100 | 70 | 50 | 0 | plant injury at 125 g/ha (corn (Zea mays)): 50%; plant injury at 31 g/ha (corn (Zea mays)): 0%; plant injury at 125 g/ha [11]: 40%; plant injury at 31 g/ha [11]: 0%; pest or weed control at 125 g/ha [12]: 80%; pest or weed control at 31 g/ha [12]: 70%; pest or weed control at 125 g/ha [13]: 40%; pest or weed control at 31 g/ha [13]: 0%; pest or weed control at 125 g/ha [14]: 20%; pest or weed control at 31 g/ha [14]: 0%; pest or weed control at 125 g/ha [15]: 40%; pest or weed control at 31 g/ha [15]: 0%; pest or weed control at 250 g/ha [16]: 65%; pest or weed control at 250 g/ha (rice (Oryra sativa)): 15%; pest or weed control at 250 g/ha [17]: 0%; pest or weed control at 250 g/ha [18]: 100%
2 | CN1C[C@H](c2ccc(C#N)c(F)c2)[C@@H](C(=O)Nc2ccccc2F)C1=O [Compound 1190] | 50 | 90 | 0 | 0 | 60 | 90 | 0 | 0 | 0 | 0 | 0 | 0 | 0 | 0 | 20 | 0 | 60 | 0 | 0 | 0 | plant injury at 125 g/ha (corn (Zea mays)): 0%; plant injury at 31 g/ha (corn (Zea mays)): 0%; plant injury at 125 g/ha [11]: 0%; plant injury at 31 g/ha [11]: 0%; pest or weed control at 125 g/ha [12]: 20%; pest or weed control at 31 g/ha [12]: 0%; pest or weed control at 125 g/ha [13]: 0%; pest or weed control at 31 g/ha [13]: 0%; pest or weed control at 125 g/ha [14]: 0%; pest or weed control at 31 g/ha [14]: 0%; pest or weed control at 125 g/ha [15]: 0%; pest or weed control at 31 g/ha [15]: 0%; pest or weed control at 250 g/ha [16]: 55%; pest or weed control at 250 g/ha (rice (Oryra sativa)): 40%; pest or weed control at 250 g/ha [17]: 0%; pest or weed control at 250 g/ha [18]: 90%
